# Values quoted from earlier work, collected in patent US9138417B2, “Controlled release particles and production method thereof” (priority 2011, dated 2015).
row,Compound,water solubility
1,C=C(C)C(=O)O [Methacrylic acid],8.9 mass%
2,"CCCC1COC(Cn2cncn2)(c2ccc(Cl)cc2Cl)O1 (stereo not drawn) [Propiconazole, 1-[2-(2,4-dichlorophenyl)-4-n-propyl-1,3-dioxolane-2-ylmethyl]-1H-1,2,4-triazole]",110 ppm
3,"CCCCNC(=O)OCC#CI [IPBC, 3-iodo-2-propynylbutylcarbamate]",150 ppm
